Test results published in ChEMBL document CHEMBL5096210, “Discovery of Betulinic Acid Derivatives as Potent Intestinal Farnesoid X Receptor Antagonists to Ameliorate Nonalcoholic Steatohepatitis” (J Med Chem, 2022).
Activity calls are given as the source filed them. The calls are words filed in the database; no cut-off is given here.

How the values were obtained:
[1] = organism: Mus musculus; assay: Anti-NASH activity in GAN diet-induced […] mouse assessed as decrease in hydroxyproline in liver; format: functional, organism-based
[2] = organism: Mus musculus; assay: Anti-NASH activity in HFMCD diet-induced […] mouse assessed as decrease in collagen deposition by Sirius red staining based analysis; format: functional, organism-based
[3] = Drug distribution in C57BL6 mouse intestine at 10 mg/kg, po administered as single dose measured after 8 hrs; format: ADME, organism-based; conditions: in vivo
[4] = organism: Mus musculus; assay: Anti-NASH activity in GAN diet-induced […] mouse assessed as bile acid level in serum; format: functional, organism-based
[5] = Drug metabolism in C57BL6 mouse serum assessed as ((1S,3aS,5aR,5bR,7aR,9R,11aR,11bR,13aR,13bR)-9-hydroxy-1-isopropyl-5a,5b,8,8,11a-pentamethylicosahydro-1H-cyclopenta[a]chrysene-3a-carbonyl)glycine formation at 10 mg/kg, po administered as single dose measured after 2 hrs; format: ADME, organism-based; conditions: in vivo
[6] = tested on: Mus musculus; assay: Anti-NASH activity in GAN-induced mouse assessed as increase in insulin sensitivity at 10 mg/kg; format: functional, organism-based
[7] = organism: Mus musculus; assay: Anti-NASH activity in GAN diet-induced […] mouse assessed as increase in hepatic bile acid synthesis; format: functional, organism-based
[8] = organism: Mus musculus; assay: Anti-NASH activity in GAN diet-induced […] mouse assessed as reduction in liver index; format: functional, organism-based
[9] = tested on: Liver; assay: Anti-NASH activity in GAN diet-induced […] mouse liver assessed as reduction in hepatocyte collagen deposition by Sirius red staining based analysis; format: functional, cell-based
[10] = tested on: Liver; assay: Anti-NASH activity in GAN diet-induced […] mouse liver assessed as reduction in macrosteatosis by Oil Red O staining based assay; format: functional
[11] = tested on: Liver; assay: Anti-NASH activity in GAN diet-induced […] mouse liver assessed as reduction in hepatocyte ballooning by H and E staining based analysis; format: functional, cell-based
[12] = tested on: Mus musculus; assay: Anti-NASH activity in HFMCD diet-induced […] mouse assessed as reduction in hepatic hydroxyproline level at 30 mg/kg, po for 4 weeks; format: functional, organism-based
[13] = tested on: Liver; assay: Anti-NASH activity in GAN diet-induced […] mouse liver assessed as reduction in hepatocyte fat by Sirius red staining based analysis; format: functional, cell-based
[14] = tested on: Mus musculus; assay: Anti-NASH activity in GAN-induced […] mouse assessed as reduction in random blood glucose level at 10 mg/kg measured upto 120 mins; format: functional, organism-based
[15] = tested on: Mus musculus; assay: Anti-NASH activity in GAN-induced mouse assessed as increase in glucose tolerance at 10 mg/kg; format: functional, organism-based
[16] = tested on: Liver; assay: Anti-NASH activity in GAN diet-induced […] mouse liver assessed as reduction in macrosteatosis by Sirius red staining based analysis; format: functional
[17] = biological target: T1, Bile acid receptor (Mus musculus) (UniProt Q60641); assay: In vivo antagonist activity against FXR in mouse assessed as reduction in Fgf15 level in presence of GW4064; format: functional
T1 sequence (whole entry): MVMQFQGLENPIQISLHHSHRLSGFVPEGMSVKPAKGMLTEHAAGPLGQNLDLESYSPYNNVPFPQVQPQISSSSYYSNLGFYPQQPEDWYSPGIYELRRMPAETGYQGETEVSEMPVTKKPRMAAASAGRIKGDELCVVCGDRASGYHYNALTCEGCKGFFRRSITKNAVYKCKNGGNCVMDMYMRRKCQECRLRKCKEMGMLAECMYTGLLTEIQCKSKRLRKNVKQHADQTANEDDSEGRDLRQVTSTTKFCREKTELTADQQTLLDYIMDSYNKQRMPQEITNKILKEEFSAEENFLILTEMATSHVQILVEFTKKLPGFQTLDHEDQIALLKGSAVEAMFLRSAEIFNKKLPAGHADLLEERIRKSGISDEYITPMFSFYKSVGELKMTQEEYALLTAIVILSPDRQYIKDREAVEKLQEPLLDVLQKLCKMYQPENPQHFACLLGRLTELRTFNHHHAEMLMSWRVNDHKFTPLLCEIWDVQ

[18] = organism: Mus musculus; assay: Anti-NASH activity in GAN diet-induced […] mouse assessed as increase in FXR protein by Western blot analysis; format: functional, organism-based
[19] = organism: Mus musculus; assay: Anti-NASH activity in GAN diet-induced […] mouse assessed as reduction in Fabp3 mRNA expression level; format: functional, organism-based
[20] = biological target: T1, Bile acid receptor (Mus musculus); assay: In vivo antagonist activity against FXR in mouse assessed as reduction in Tgr5 expression in small intestine organoids; format: functional
[21] = biological target: T1, Bile acid receptor (Mus musculus); assay: In vivo antagonist activity against FXR in mouse assessed as reduction in Fxr level in presence of GW4064; format: functional

CCCC(=O)O[C@@H]1CC[C@]2(C)[C@H]3CC[C@@H]4[C@H]5[C@H](C(C)C)CC[C@]5(C(=O)NCC(=O)O)CC[C@@]4(C)[C@]3(C)CC[C@H]2C1(C)C
Activity [1]: Active
Activity [2]: Active
Drug uptake [3]: Active
Activity [4]: Active
Drug metabolism [5]: Metabolite_Detected
Activity [6]: Active
Activity [7]: Active
Activity [8]: Active
Activity [9]: Active
Activity [10]: Active
Activity [11]: Active
Activity [12]: Active
Activity [13]: Active
Activity [14]: Active
Activity [15]: Active
Activity [16]: Active
Activity [17]: Active
Activity [18]: Active
Activity [19]: Active
Activity [20]: Active
Activity [21]: Active
